Results taken from PMC10343660, “Mechanochemical Studies on Coupling of Hydrazines and Hydrazine Amides with Phenolic and Furanyl Aldehydes—Hydrazones with Antileishmanial and Antibacterial Activities” (Molecules, 2023).
≈ marks a conversion by molar mass, not a printed value. Where two headings read alike, the source gives them in different places. Marks after values point to notes of the source that are not given here.

What was measured:
[1] = tested on: L. donovani axenic amastigotes (LV9); experiment: In vitro antileishmanial evaluation on L. donovani axenic amastigotes (SYBR Green); assay type: cell-based, Leishmania donovani; conditions: read-out: L. donovani Axenic Amastigote IC50 ± SD
Method: L. donovani (MHOM/ET/67/HU3, also called LV9) promastigotes and axenic amastigotes were maintained according to the protocols previously described.
In vitro antileishmanial evaluation on L. donovani axenic amastigotes. This evaluation was performed using the SYBR Green method as previously described. IC50 values were calculated using the ICEstimator version 1.2 software (http://www.antimalarial-icestimator.net/runregression1.2.htm, accessed on 5 April 2023). Miltefosine was used as the reference drug.

S. aureus ATCC25923 = experiment: MIC determination on S. aureus ATCC25923 (microdilution, resazurin); assay type: cell-based, Staphylococcus aureus
[2] = tested on: Mycobacterium tuberculosis H37Rv; experiment: MIC determination for Mycobacterium tuberculosis H37Rv (REMA); assay type: cell-based; conditions: for MIC: read-out: M. tuberculosis H37Rv MIC; for MIC90: read-out: minimum inhibitory concentration (MIC90) on M. tuberculosis H37Rv
E. coli ATCC25922 = experiment: MIC determination on E. coli ATCC25922 (microdilution, resazurin); assay type: cell-based, Escherichia coli
[3] = tested on: L. donovani intramacrophage amastigotes; experiment: In vitro antileishmanial evaluation on intramacrophage amastigotes (RAW 264.7 infected, SYBR Green); assay type: cell-based, Leishmania donovani; conditions: for IC50: read-out: L. donovani Intramacrophage Amastigote IC50 ± SD; for SI (Selectivity Index): CC50 (macrophage RAW 264.7)/IC50 (intramacrophage form of L. donovani)
Method: In vitro antileishmanial evaluation on intramacrophage amastigotes. RAW 264.7 macrophages were infected with L. donovani axenic amastigotes according to a ratio of 10 parasites per macrophage. […] The in vitro treatment was applied 24 h post-infection, and the treatment duration was 48 h. […] The activity of the compounds is expressed as IC50, calculated using the ICEstimator version 1.2 software. Miltefosine was used as the reference drug.

S. aureus ATCC29213 = experiment: MIC determination on S. aureus ATCC29213; assay type: cell-based, Staphylococcus aureus; conditions: value in parentheses
[4] = Leishmania donovani, LV9 axenic amastigote forms
[5] = Staphylococcus aureus, ATCC25923, value outside parentheses, read-out: S. aureus ATCC25923 MIC
[6] = Mycobacterium tuberculosis, H37RV, 168 h, REMA, 7 days
[7] = Escherichia coli, ATCC25922, value outside parentheses, read-out: E. coli ATCC25922 MIC
[8] = Leishmania donovani, RAW264.7, RAW 264.7 macrophages infected, treatment 48 h
[9] = Staphylococcus aureus, ATCC25923, 24 h, value outside parentheses, read-out: S. aureus ATCC25923 MIC
[10] = Escherichia coli, ATCC25922, 24 h, value outside parentheses, read-out: E. coli ATCC25922 MIC
[11] = Staphylococcus aureus, ATCC29213
[12] = value outside parentheses, read-out: S. aureus ATCC25923 MIC
[13] = Mycobacterium tuberculosis, H37RV, range for the active compounds

## O=[N+]([O-])c1ccc(-c2ccc(/C=N/Nc3ccc(Br)cn3)o2)cc1 [Compound 13, 5-Bromo-2-[(2E)-2-{[5-(4-nitrophenyl)furan-2-yl]methylidene}hydrazin-1-yl]pyridine]
[1]; [4]
  IC50: 54.3 ± 4.5 µM
S. aureus ATCC25923; [5]
  MIC: > 661 µM
[2]; [6]
  MIC: > 100 µM
E. coli ATCC25922; [7]
  MIC: > 661 µM
[3]; [8]
  IC50: > 100 µM

## O=C1CSC(=S)N1/N=C/c1ccc(-c2ccc([N+](=O)[O-])cc2)o1 [Compound 11, 3-[(E)-{[5-(4-Nitrophenyl)-2-furyl]methylene}amino]-2-thioxo-1,3-thiazolidin-4-one]
[1]; [4]
  IC50: 5.2 ± 0.3 µM
S. aureus ATCC25923; [5]
  MIC: > 737 µM
[2]; [6]
  MIC: > 100 µM
E. coli ATCC25922; [7]
  MIC: > 737 µM
[3]; [8]
  IC50: > 100 µM
other
  melting point: 175 °C

## O=[N+]([O-])c1ccc(-c2ccc(/C=N/Nc3nccc(C(F)(F)F)n3)o2)cc1 [Compound 14, 2-[(2E)-2-{[5-(4-Nitrophenyl)furan-2-yl]methylidene}hydrazin-1-yl]-4-(trifluoromethyl) pyrimidine]
[1]; [4]
  IC50: 2.9 ± 0.2 µM
S. aureus ATCC25923; [9]
  MIC: > 669 µM
[2]; [6]
  MIC: > 100 µM
E. coli ATCC25922; [10]
  MIC: > 669 µM
[3]
  SI (Selectivity Index): >8
[3]; [8]
  IC50: 11.9 ± 1.1 µM
other
  melting point: 212.4 to 214.2 °C

## CCCCCCCCCCCCCCCCOP(=O)([O-])OCC[N+](C)(C)C [Miltefosine, reference compound]
[1]; [4]
  IC50: 1.5 ± 0.3 µM
[3]
  SI (Selectivity Index): 9 ^a
[3]; [8]
  IC50: 2.2 ± 0.3 µM

## O=C(N/N=C/c1ccc(-c2ccc([N+](=O)[O-])cc2)o1)c1ccncc1 [Compound 8, N′-{(E)-[5-(4-Nitrophenyl)-2-furyl]methylene}isonicotinohydrazide]
[1]; Leishmania donovani
  IC50: 16.2 ± 1.2 µM
S. aureus ATCC25923; Staphylococcus aureus, ATCC25923, read-out: S. aureus ATCC25923 MIC
  MIC: > 761 µM
[2]; Mycobacterium tuberculosis, H37RV, 168 h
  MIC: 0.9 µM (≈ 0.303 µg/mL)
[2]; Mycobacterium tuberculosis, H37RV
  MIC90: 0.6 to 7.4 µM (≈ 0.202 to 2.49 µg/mL)
E. coli ATCC25922; Escherichia coli, ATCC25922, read-out: E. coli ATCC25922 MIC
  MIC: > 761 µM
[3]
  SI (Selectivity Index): >2
[3]; Leishmania donovani, RAW264.7, 48 h
  IC50: 36.2 ± 1.4 µM

## O=C(O)c1cn(C2CC2)c2cc(N3CCNCC3)c(F)cc2c1=O [Ciprofloxacin, reference compound]
S. aureus ATCC29213; [11]
  MIC: 5 µM (≈ 1.66 µg/mL)
S. aureus ATCC25923; [5]
  MIC: 3 µM (≈ 0.994 µg/mL)
E. coli ATCC25922; [7]
  MIC: 0.75 µM (≈ 0.249 µg/mL)

## O=C(N/N=C/c1ccc(-c2ccc([N+](=O)[O-])cc2)o1)OCc1ccccc1 [Compound 17, N′-[(E)-[5-(4-nitrophenyl)furan-2-yl]methylidene](benzyloxy)carbohydrazide]
[1]; LV9 axenic amastigote forms
  IC50: 12.2 ± 1.6 µM
S. aureus ATCC25923; [12]
  MIC: >701 µM
[2]; REMA, 7 days
  MIC: >100 µM
E. coli ATCC25922; value outside parentheses, read-out: E. coli ATCC25922 MIC
  MIC: >701 µM
[3]; RAW 264.7 macrophages infected, treatment 48 h
  IC50: 32.4 ± 2.8 µM

## O=[N+]([O-])c1ccc(-c2ccc(/C=N/Nc3nc4ccc(Cl)cc4o3)o2)cc1 [Compound 16, 6-chloro-2-[(2E)-2-{[5-(4-nitrophenyl)furan-2-yl]methylidene}hydrazin-1-yl]-1,3-benzoxazole]
[1]; [4]
  IC50: > 100 µM
S. aureus ATCC25923; [9]
  MIC: > 828 µM
[2]; [6]
  MIC: > 100 µM
E. coli ATCC25922; [10]
  MIC: > 828 µM
[3]; [8]
  IC50: > 100 µM
other
  melting point: 190.9 °C

## O=[N+]([O-])c1ccc(-c2ccc(/C=N/Nc3nc4ccccc4s3)o2)cc1 [Compound 10, 2-[(2E)-2-{[5-(4-Nitrophenyl)-2-furyl]methylene}hydrazino]-1,3-benzothiazole]
[1]; [4]
  IC50: 0.7 ± 0.1 µM
S. aureus ATCC25923; [5]
  MIC: > 703 µM
[2]; [6]
  MIC: > 100 µM
E. coli ATCC25922; [7]
  MIC: > 703 µM
[3]; [8]
  IC50: 5.8 ± 1 µM
other
  melting point: 271.9 °C

## O=[N+]([O-])c1ccc(/C=C/C=N/NN2Cc3ccccc3C=N2)o1 [Compound 4, 2-{(2E)-2-[(2E)-3-(5-Nitro-2-furyl)-2-propen-1-ylidene]hydrazino}phthalazine]
[1]; [4]
  IC50: 1.9 ± 0.3 µM
S. aureus ATCC25923; [5]
  MIC: > 828 µM
[2]; [6]
  MIC: 129 µM (≈ 40.2 µg/mL)
E. coli ATCC25922; [7]
  MIC: > 828 µM
[3]
  SI (Selectivity Index): >166
[3]; [8]
  IC50: 0.6 ± 0.1 µM

## [H]/N=C(/N)N[C@H]1[C@H](O)[C@@H](O)[C@H](O[C@@H]2O[C@@H](C)[C@](O)(C=O)[C@H]2O[C@@H]2O[C@@H](CO)[C@H](O)[C@@H](O)[C@@H]2NC)[C@@H](N/C(N)=N\[H])[C@@H]1O [Streptomycin, reference compound]
[2]; [6]
  MIC: 0.4 µM (≈ 0.233 µg/mL)

## O=[N+]([O-])c1ccc(/C=C/C=N/Nc2nc3ccccc3s2)o1 [Compound 5, 2-{(2E)-2-[(2E)-3-(5-Nitro-2-furyl)-2-propen-1-ylidene]hydrazino}-1,3-benzothiazole]
[1]; [4]
  IC50: 2.3 ± 0.3 µM
S. aureus ATCC25923; [5]
  MIC: > 814 µM
[2]; [6]
  MIC: 1 µM (≈ 0.314 µg/mL)
[2]; [13]
  MIC90: 0.6 to 7.4 µM (≈ 0.189 to 2.33 µg/mL)
E. coli ATCC25922; [7]
  MIC: > 814 µM
[3]
  SI (Selectivity Index): >8
[3]; [8]
  IC50: 12.4 ± 1.2 µM
other
  melting point: 243.1 °C

## O=[N+]([O-])c1ccc(-c2ccc(/C=N/Nc3nncc4ccccc34)o2)cc1 [Compound 9, 1-[(2E)-2-{[5-(4-Nitrophenyl)-2-furyl]methylene}hydrazino]phthalazine]
[1]; [4]
  IC50: 0.2 ± 0.1 µM
S. aureus ATCC25923; [5]
  MIC: > 711 µM
[2]; [6]
  MIC: > 100 µM
E. coli ATCC25922; [7]
  MIC: > 711 µM
[3]
  SI (Selectivity Index): >333
[3]; [8]
  IC50: 0.3 ± 0.1 µM
other
  melting point: 239.5 to 241.5 °C

## O=[N+]([O-])c1ccc(-c2ccc(/C=N/Nc3cnccn3)o2)cc1 [Compound 15, 2-[(2E)-2-{[5-(4-nitrophenyl)furan-2-yl]methylidene}hydrazin-1-yl]pyrazine]
[1]; [4]
  IC50: 9.9 ± 0.8 µM
S. aureus ATCC25923; [9]
  MIC: > 678 µM
[2]; [6]
  MIC: > 100 µM
E. coli ATCC25922; [10]
  MIC: > 678 µM
[3]
  SI (Selectivity Index): >4
[3]; [8]
  IC50: 23.3 ± 3.1 µM
other
  melting point: 272.2 to 274 °C

## NNC(=O)c1ccncc1 [Isoniazid, reference compound]
[2]; [6]
  MIC: 0.4 µM (≈ 0.0549 µg/mL)

## O=C1CSC(=S)N1/N=C/C=C/c1ccc([N+](=O)[O-])o1 [Compound 6, 3-{(E)-[(2E)-3-(5-Nitro-2-furyl)-2-propen-1-ylidene]amino}-2-thioxo-1,3-thiazolidin-4-one]
[1]; [4]
  IC50: 0.7 ± 0.1 µM
S. aureus ATCC29213; [11]
  MIC: 7 µM (≈ 2.08 µg/mL)
S. aureus ATCC29213
  MIC: 7 µM (≈ 2.08 µg/mL)
S. aureus ATCC25923; [5]
  MIC: 13 µM (≈ 3.87 µg/mL)
S. aureus ATCC25923; [12]
  MIC: 13 µM (≈ 3.87 µg/mL)
[2]; [6]
  MIC: 4.2 µM (≈ 1.25 µg/mL)
[2]; [13]
  MIC90: 0.6 to 7.4 µM (≈ 0.178 to 2.2 µg/mL)
E. coli ATCC25922; [7]
  MIC: > 861 µM
[3]
  SI (Selectivity Index): >125
[3]; [8]
  IC50: 0.8 ± 0.1 µM

## COc1cc(/C=N/NC(=O)c2ccc(O)cc2)ccc1O [Compound 2, 4-hydroxy-N′-[(E)-(4-hydroxy-3-methoxyphenyl)methylidene]benzohydrazide]
[1]; [4]
  IC50: 2.1 ± 0.1 µM
S. aureus ATCC25923; [5]
  MIC: > 894 µM
[2]; [6]
  MIC: > 100 µM
E. coli ATCC25922; [7]
  MIC: > 894 µM
[3]
  SI (Selectivity Index): >17
[3]; [8]
  IC50: 5.9 ± 0.9 µM

## COc1cc(/C=N/NC(=O)c2ccncc2)ccc1O [Compound 1, N′-[(E)-(4-Hydroxy-3-methoxyphenyl)methylene]isonicotinohydrazide]
[1]; [4]
  IC50: 24.9 ± 2.9 µM
S. aureus ATCC25923; [5]
  MIC: > 944 µM
[2]; [6]
  MIC: 0.6 µM (≈ 0.163 µg/mL)
[2]; [13]
  MIC90: 0.6 to 7.4 µM (≈ 0.163 to 2.01 µg/mL)
E. coli ATCC25922; [7]
  MIC: > 944 µM
[3]
  SI (Selectivity Index): >2.5
[3]; [8]
  IC50: 40.2 ± 3.1 µM
